From ChEMBL document CHEMBL4765365, “Design, synthesis and antitumour evaluation of pyrrolo[1,2-f]-phenanthridine and dibenzo[f,h]pyrrolo[1,2-b]isoquinoline derivatives” (Eur J Med Chem, 2020)

Assays:
NCI-H460 [1] = experiment: Cytotoxicity against human NCI-H460 cells assessed as reduction in cell viability incubated for 72 hrs by XTT assay; assay type: functional, cell-based; conditions: NCI-H460, 72 h
[2] = Cytotoxicity against human PacaS1 cells assessed as reduction in cell viability incubated for 72 hrs by XTT assay; assay type: functional, cell-based; conditions: PacaS1, 72 h
HCT-116 [3] = experiment: Induction of cell cycle arrest in human HCT-116 cells assessed as G0 phase at 0.375 uM measured at 0 hrs by PI staining based flow cytometry analysis (reference value: 0.7 +/- 0.2 %); assay type: functional
HCT-116 [4] = experiment: Induction of cell cycle arrest in human HCT-116 cells assessed as S phase at 0.375 uM measured at 0 hrs by PI staining based flow cytometry analysis (reference value: 12.4 +/- 6.2 %); assay type: functional
HCT-116 [5] = experiment: Induction of cell cycle arrest in human HCT-116 cells assessed as S phase at 0.375 uM incubated for 12 hrs by PI staining based flow cytometry analysis (reference value: 15.5 +/- 0.2 %); assay type: functional
HCT-116 [6] = experiment: Induction of cell cycle arrest in human HCT-116 cells assessed as G0 phase at 0.375 uM incubated for 24 hrs by PI staining based flow cytometry analysis (reference value: 12.5 +/- 5.4 %); assay type: functional
HCT-116 [7] = experiment: Induction of cell cycle arrest in human HCT-116 cells assessed as S phase at 0.375 uM incubated for 24 hrs by PI staining based flow cytometry analysis (reference value: 21.2 +/- 5.4 %); assay type: functional
HCT-116 [8] = experiment: Induction of cell cycle arrest in human HCT-116 cells assessed as G1 phase at 0.375 uM incubated for 36 hrs by PI staining based flow cytometry analysis (reference value: 57.4 +/- 1.3 %); assay type: functional
HCT-116 [9] = experiment: Induction of cell cycle arrest in human HCT-116 cells assessed as G2/M phase at 0.375 uM incubated for 36 hrs by PI staining based flow cytometry analysis (reference value: 23.6 +/- 1 %); assay type: functional
HCT-116 [10] = experiment: Induction of cell cycle arrest in human HCT-116 cells assessed as G0 phase at 0.75 uM measured at 0 hrs by PI staining based flow cytometry analysis (reference value: 0.7 +/- 0.2 %); assay type: functional
HCT-116 [11] = experiment: Induction of cell cycle arrest in human HCT-116 cells assessed as G1 phase at 0.75 uM incubated for 12 hrs by PI staining based flow cytometry analysis (reference value: 53.6 +/- 4.5 %); assay type: functional
HCT-116 [12] = experiment: Induction of cell cycle arrest in human HCT-116 cells assessed as G1 phase at 0.75 uM incubated for 24 hrs by PI staining based flow cytometry analysis (reference value: 55 +/- 9.8 %); assay type: functional
HCT-116 [13] = experiment: Induction of cell cycle arrest in human HCT-116 cells assessed as G0 phase at 0.75 uM incubated for 36 hrs by PI staining based flow cytometry analysis (reference value: 2.5 +/- 0.8 %); assay type: functional
HCT-116 [14] = experiment: Induction of cell cycle arrest in human HCT-116 cells assessed as S phase at 0.75 uM incubated for 36 hrs by PI staining based flow cytometry analysis (reference value: 7.9 +/- 3.7 %); assay type: functional
HCT-116 [15] = experiment: Induction of cell cycle arrest in human HCT-116 cells assessed as S phase at 1.5 uM measured at 0 hrs by PI staining based flow cytometry analysis (reference value: 12.4 +/- 6.2 %); assay type: functional
HCT-116 [16] = experiment: Induction of cell cycle arrest in human HCT-116 cells assessed as G2/M phase at 1.5 uM measured at 0 hrs by PI staining based flow cytometry analysis (reference value: 28.9 +/- 1.4 %); assay type: functional
HCT-116 [17] = experiment: Induction of cell cycle arrest in human HCT-116 cells assessed as G0 phase at 1.5 uM incubated for 12 hrs by PI staining based flow cytometry analysis (reference value: 2.2 +/- 1.7 %); assay type: functional
HCT-116 [18] = experiment: Induction of cell cycle arrest in human HCT-116 cells assessed as G2/M phase at 1.5 uM incubated for 12 hrs by PI staining based flow cytometry analysis (reference value: 21.7 +/- 1.9 %); assay type: functional
HCT-116 [19] = experiment: Induction of cell cycle arrest in human HCT-116 cells assessed as G0 phase at 1.5 uM incubated for 24 hrs by PI staining based flow cytometry analysis (reference value: 12.5 +/- 5.4 %); assay type: functional
HCT-116 [20] = experiment: Induction of cell cycle arrest in human HCT-116 cells assessed as G2/M phase at 1.5 uM incubated for 24 hrs by PI staining based flow cytometry analysis (reference value: 9.3 +/- 0.8 %); assay type: functional
HCT-116 [21] = experiment: Induction of cell cycle arrest in human HCT-116 cells assessed as S phase at 1.5 uM incubated for 36 hrs by PI staining based flow cytometry analysis (reference value: 7.9 +/- 3.7 %); assay type: functional
NCI-H460 [22] = experiment: Induction of cell cycle arrest in human NCI-H460 cells assessed as S phase at 0.75 uM measured at 0 hrs by PI staining based flow cytometry analysis (reference value: 12.2 +/- 2.8 %); assay type: functional
NCI-H460 [23] = experiment: Induction of cell cycle arrest in human NCI-H460 cells assessed as S phase at 0.75 uM incubated for 24 hrs by PI staining based flow cytometry analysis (reference value: 11.7 +/- 6.1 %); assay type: functional
NCI-H460 [24] = experiment: Induction of cell cycle arrest in human NCI-H460 cells assessed as S phase at 0.75 uM incubated for 36 hrs by PI staining based flow cytometry analysis (reference value: 7.6 +/- 3.9 %); assay type: functional
NCI-H460 [25] = experiment: Induction of cell cycle arrest in human NCI-H460 cells assessed as S phase at 1.5 uM measured at 0 hrs by PI staining based flow cytometry analysis (reference value: 12.2 +/- 2.8 %); assay type: functional
NCI-H460 [26] = experiment: Induction of cell cycle arrest in human NCI-H460 cells assessed as G2/M phase at 1.5 uM incubated for 12 hrs by PI staining based flow cytometry analysis (reference value: 22.9 +/- 6.8 %); assay type: functional
NCI-H460 [27] = experiment: Induction of cell cycle arrest in human NCI-H460 cells assessed as G1 phase at 3 uM measured at 0 hrs by PI staining based flow cytometry analysis (reference value: 53.4 +/- 4.8 %); assay type: functional
NCI-H460 [28] = experiment: Induction of cell cycle arrest in human NCI-H460 cells assessed as G0 phase at 3 uM incubated for 24 hrs by PI staining based flow cytometry analysis (reference value: 1.6 +/- 0.6 %); assay type: functional
NCI-H460 [29] = experiment: Induction of cell cycle arrest in human NCI-H460 cells assessed as G1 phase at 3 uM incubated for 24 hrs by PI staining based flow cytometry analysis (reference value: 56.8 +/- 7.6 %); assay type: functional
NCI-H460 [30] = experiment: Induction of apoptosis in human NCI-H460 cells assessed as late apoptotic cells at 6 uM incubated for 48 hrs by annexin V-FITC and PI staining based flow cytometry analysis (reference value: 7.3 %); assay type: functional
NCI-H460 [31] = experiment: Induction of apoptosis in human NCI-H460 cells assessed as necrotic cells at 6 uM incubated for 48 hrs by annexin V-FITC and PI staining based flow cytometry analysis (reference value: 0.7 %); assay type: functional
NCI-H460 [32] = experiment: Antitumor activity against human NCI-H460 cells xenografted in nude mouse assessed as reduction in tumor size at 30 mg/kg, iv administered for 5 days and repeated cycle for 2 days interval and measured on day 24; assay type: functional; conditions: 576 h, time 24 day, read-out: TGI

OCc1cn2c3ccccc3c3ccccc3c2c1CO
IC50 (NCI-H460 [1]): 3.14 µM
IC50 [2]: 1.41 µM
Activity (HCT-116 [3]): 0.6%
Activity (HCT-116 [4]): 12.4%
Activity (HCT-116 [5]): 16.9%
Activity (HCT-116 [6]): 13.8%
Activity (HCT-116 [7]): 17.2%
Activity (HCT-116 [8]): 59.3%
Activity (HCT-116 [9]): 23.4%
Activity (HCT-116 [10]): 0.8%
Activity (HCT-116 [11]): 51.6%
Activity (HCT-116 [12]): 57.4%
Activity (HCT-116 [13]): 6.9%
Activity (HCT-116 [14]): 5.1%
Activity (HCT-116 [15]): 12.6%
Activity (HCT-116 [16]): 28.5%
Activity (HCT-116 [17]): 1.9%
Activity (HCT-116 [18]): 24%
Activity (HCT-116 [19]): 6.4%
Activity (HCT-116 [20]): 30.3%
Activity (HCT-116 [21]): 6.1%
Activity (NCI-H460 [22]): 12.6%
Activity (NCI-H460 [23]): 11%
Activity (NCI-H460 [24]): 6.3%
Activity (NCI-H460 [25]): 12%
Activity (NCI-H460 [26]): 25.1%
Activity (NCI-H460 [27]): 52.1%
Activity (NCI-H460 [28]): 5.2%
Activity (NCI-H460 [29]): 49.3%
Activity (NCI-H460 [30]): 55.8%
Activity (NCI-H460 [31]): 1.6%
inhibition in vivo at 30 mg/kg (NCI-H460 [32]): 66%
